Measurements published in ChEMBL document CHEMBL4041477, “Design, synthesis and biological evaluation of novel 2,3-dihydroquinazolin- 4(1H)-one derivatives as potential fXa inhibitors” (Eur J Med Chem, 2017).

How the values were obtained:
Plasma [1] = experiment: Anticoagulant activity in rabbit plasma assessed as increase in prothrombin time after 10 mins by coagulometer; assay type: functional, Oryctolagus cuniculus
Prothrombin = Prothrombin (Homo sapiens, UniProt P00734); experiment: Inhibition of human thrombin using substrate S-2238 preincubated for 30 mins followed by substrate addition measured after 20 mins by micro plate reader method
Plasma [2] = experiment: Anticoagulant activity in rabbit plasma assessed as increase in activated partial thromboplastin time after 10 mins by coagulometer; assay type: functional, Oryctolagus cuniculus
Coagulation factor X = Coagulation factor X (Homo sapiens, UniProt P00742); experiment: Inhibition of human factor 10a using substrate S-2765 preincubated for 30 mins followed by substrate addition measured after 20 mins by micro plate reader method
Coagulation factor X, sequence (P00742 41-179 limits assumed): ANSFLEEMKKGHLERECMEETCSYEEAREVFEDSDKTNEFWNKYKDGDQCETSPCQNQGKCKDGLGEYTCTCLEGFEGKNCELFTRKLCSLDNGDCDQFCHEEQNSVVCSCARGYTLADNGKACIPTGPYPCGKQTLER
Coagulation factor X, sequence (P00742 235-488 limits assumed): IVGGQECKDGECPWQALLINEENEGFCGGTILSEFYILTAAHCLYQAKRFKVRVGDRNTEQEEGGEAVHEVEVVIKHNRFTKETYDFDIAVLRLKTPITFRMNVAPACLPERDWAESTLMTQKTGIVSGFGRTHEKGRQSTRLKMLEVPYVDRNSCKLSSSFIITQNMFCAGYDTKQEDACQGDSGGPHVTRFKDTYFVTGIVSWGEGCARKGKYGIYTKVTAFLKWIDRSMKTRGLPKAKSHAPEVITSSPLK

Rattus norvegicus [3] = experiment: Toxicity in po dosed rat assessed as increase in tail bleeding time administered 60 mins prior to tail transection measured over 30 mins; assay type: organism-based; conditions: in vivo, 0.5 h
Rattus norvegicus [4] = experiment: Antithrombotic activity in rat model of arteriovenous shunt assessed as reduction in thrombus weight at 10 mg/kg, po administered 60 mins prior to shunt opening; assay type: functional, organism-based
Rattus norvegicus [5] = experiment: Antithrombotic activity in po dosed rat model of arteriovenous shunt assessed as reduction in thrombus weight administered 60 mins prior to shunt opening; assay type: functional, organism-based

## COc1ccc2c(c1)C(=O)N(c1ccc(N3CCOCC3=O)cc1)CN2C(=O)Cc1ccc(Cl)cc1
Plasma [1]
  2PT: 11.6 µM
Prothrombin
  IC50: 81 µM
Plasma [2]
  2aPTT: 16.1 µM
Coagulation factor X
  IC50: 42 nM

## COc1ccc2c(c1)C(=O)N(c1ccc(N3CCCCC3=O)cc1)CN2C(=O)Cc1ccccc1Cl
Coagulation factor X
  IC50: 1340 nM

## COc1ccc2c(c1)C(=O)N(c1ccc(N3CCCCC3=O)cc1)CN2C(=O)Cc1cccc(Cl)c1
Coagulation factor X
  IC50: 532 nM

## COc1ccc(CC(=O)N2CN(c3ccc(N4CCCCC4=O)cc3)C(=O)c3cc(OC)ccc32)c(OC)c1
Coagulation factor X
  IC50: 1270 nM

## COc1ccc2c(c1)C(=O)N(c1ccc(N3CCOCC3=O)cc1)CN2C(=O)CCc1ccc(Cl)cc1
Coagulation factor X
  IC50: 2210 nM

## COc1ccc2c(c1)C(=O)N(c1ccc(N3CCCCC3=O)cc1)CN2C(=O)Cc1ccccc1
Coagulation factor X
  IC50: 4060 nM

## COc1ccc(NC(=O)c2ccc(C(=N)N(C)C)cc2)c(C(=O)Nc2ccc(Cl)cn2)c1 [BETRIXABAN]
Plasma [1]
  2PT: 2.4 µM
Rattus norvegicus [3]
  Activity: Dose-dependent effect
Plasma [2]
  2aPTT: 1.1 µM
Rattus norvegicus [4]
  Activity: Dose-dependent effect

## COc1ccc2c(c1)C(=O)N(c1ccc(N3CCOCC3=O)cc1)CN2C(=O)Cc1ccc(Cl)cc1Cl
Coagulation factor X
  IC50: 498 nM

## COc1ccc2c(c1)C(=O)N(c1ccc(N3CCCCC3=O)cc1)CN2C(=O)c1ccc(Cl)s1
Coagulation factor X
  IC50: 179000 nM

## COc1cccc(C(=O)N2CN(c3ccc(N4CCCCC4=O)cc3)C(=O)c3cc(OC)ccc32)c1
Coagulation factor X
  IC50: 354000 nM

## COc1ccc2c(c1)C(=O)N(c1ccc(N3CCOCC3=O)cc1)CN2C(=O)c1ccc(CCl)cc1
Coagulation factor X
  IC50: 1410 nM

## COc1ccc2c(c1)C(=O)N(c1ccc(N3CCOCC3=O)cc1)CN2C(=O)Cc1ccc(Cl)cn1
Coagulation factor X
  IC50: 157 nM

## COc1ccc2c(c1)C(=O)N(c1ccc(N3CCCCC3=O)cc1)CN2C(=O)c1ccccc1
Coagulation factor X
  IC50: 546000 nM

## COc1ccc2c(c1)C(=O)N(c1ccc(-n3ccccc3=O)cc1)CN2C(=O)Cc1ccc(Cl)cc1
Coagulation factor X
  IC50: 165 nM

## COc1ccc2c(c1)C(=O)N(c1ccc(N3CCOCC3=O)cc1)CN2C(=O)Cc1ccc(Cl)c(Cl)c1
Coagulation factor X
  IC50: 345 nM

## COc1ccc2c(c1)C(=O)N(c1ccc(N3CCCCC3=O)cc1)CN2C(=O)Cc1ccc(Cl)cc1
Coagulation factor X
  IC50: 127 nM

## COc1ccc2c(c1)C(=O)N(c1ccc(N3CCCCC3=O)cc1)CN2C(=O)Cc1ccc(NC(C)=O)cc1
Coagulation factor X
  IC50: 234 nM

## COc1ccc2c(c1)C(=O)N(c1ccc(N3CCOCC3=O)cc1)CN2C(=O)Cc1ccc(Cl)s1
Plasma [1]
  2PT: 1.2 µM
Prothrombin
  IC50: 67 µM
Rattus norvegicus [5]
  Activity: Dose-dependent effect
Rattus norvegicus [3]
  Activity: Dose-dependent effect
Plasma [2]
  2aPTT: 0.6 µM
Coagulation factor X
  IC50: 21 nM

## COc1ccc(CC(=O)N2CN(c3ccc(N4CCCCC4=O)cc3)C(=O)c3cc(OC)ccc32)cc1
Coagulation factor X
  IC50: 887 nM

## COc1ccc2c(c1)C(=O)N(c1ccc(N3CCCCC3=O)cc1)CN2C(=O)c1ccc(Cl)cc1
Coagulation factor X
  IC50: 52000 nM

## COc1ccc2c(c1)C(=O)N(c1ccc(N3CCCCC3=O)cc1)CN2C(=O)c1cccc(Cl)c1
Coagulation factor X
  IC50: 243000 nM

## COc1ccc(CC(=O)N2CN(c3ccc(N4CCOCC4=O)cc3)C(=O)c3cc(OC)ccc32)cc1
Coagulation factor X
  IC50: 717 nM

## COc1ccc(C(=O)N2CN(c3ccc(N4CCCCC4=O)cc3)C(=O)c3cc(OC)ccc32)cc1
Coagulation factor X
  IC50: 113000 nM
